This is an account of results in US20240067634A1, “INHIBITORS OF NEF DOWNMODULATION” (priority 2020, published 2024).

Data set [1] concerns the target T1, HIV-1 Nef (Human immunodeficiency virus 1, UniProt P03406).
T1 sequence (P03406 2-206): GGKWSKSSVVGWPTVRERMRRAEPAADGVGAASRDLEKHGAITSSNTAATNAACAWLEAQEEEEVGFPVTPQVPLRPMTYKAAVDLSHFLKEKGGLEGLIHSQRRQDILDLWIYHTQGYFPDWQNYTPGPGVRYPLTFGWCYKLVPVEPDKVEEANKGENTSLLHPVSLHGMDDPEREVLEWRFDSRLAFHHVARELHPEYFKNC
As to the kind of experiment: Anti-Nef activity: reversal of Nef-dependent MHC-I HLA-A2 downmodulation, flow cytometry. The format is cell-based. As for the experimental part: Determination of anti-Nef activity: To identify molecules with enhanced Nef inhibition, decreased toxicity and decreased inhibition of lysosomes, the analogs of the disclosure are screened initially for Nef inhibitory activity using a high throughput assay in HIV-1 infected CEM-A2 cells. These cells are infected with an HIV-1 reporter construct for 48 hours and then exposed to potential inhibitors for 24 hours. Cells are harvested and stained for flow cytometric analysis of HLA-A2 surface expression, and the fold downmodulation of HLA-A2 are calculated by comparing expression on uninfected cells to that on infected cells.
PBMCs is isolated from leukopaks, CD8-depleted, and stimulated with PHA.
To assess their toxicity, an MTT assay was used, which measures […] dehydrogenase activity. Metabolically active cells reduce MTT to MTT-formazan leading to a color change. For this analysis, PHA-activated primary human PBMCs were exposed to a range of concentrations of each drug continuously for 72 hours of culture.
On the technique in general: Flow cytometry measures light scatter and fluorescence of single cells or particles in a stream.

Data set [2] deals with V-ATPase-dependent lysosomal acidification. Briefly: cells. The format is cell-based, human. The note with it: read-out: Lyso IC50. From the text: Determine effect on V-ATPase activity: Plecomacrolides are known inhibitors of V-ATPase that neutralize normally acidified lysosomes. […] Thus, analogs of the disclosure are further characterized by measuring their effects on lysosome acidification.
LysoTracker® is a fluorophore linked to a weak base that is partially protonated at neutral pH. This form of the probe is capable of freely permeating cell membranes of live cells. In acidic compartments, protonation creates a form that was impermeable causing the probe to accumulate inside the lysosome.

Data set [3] deals with C57BL/6J mice. The note with it: cited from earlier work.
Data set [4] concerns C57BL/6J and BALB/c mice. The note with it: five consecutive doses at 12 mg/kg; cited from earlier work.
Data set [5] relates to HIV-1 WT infected primary T cells. As to the kind of experiment: In vitro flow cytometric anti-HIV-1 CTL killing assay. It counts as cell-based, human. The note with it: low dose CMA (0.5 nM in FIG. 8); anti-HIV-1 CTL clone. As for the experimental part: Numbers are mean percent infected cell survival after a 4 hour incubation with a 2:1 effector:target (E:T) ratio of an anti-HIV-1 CTL clone recognizing Gag SL9 epitope (n=2).
Mean +/− standard deviation is shown n=2. E:T, effector:target.
Therefore, the effect of promising Nef inhibitor analogs is generated as disclosed herein on anti-HIV-1 CTL killing using the in vitro flow cytometric CTL killing assay developed previously (FIGS. 1 and 8 ? (Collins et al., 1998). These studies utilize CTL clones reactive against various HIV-1 epitopes known to be affected by Nef (Collins et al., 1998).

Data set [6] has as its system Nef-dependent degradation of MHC-I and CD4. Briefly: Western blot of Nef-dependent protein degradation in sorted HIV-1 infected primary T cells. The format is cell-based, human. On the technique in general: Immunoblotting shows a protein as a band on a membrane.
[7] abbreviates: 24 hr Lysotracker IC50, 1000 nM set as activity threshold (FIG. 11-14).
The mark [8] stands for this setting: Homo sapiens, PBMC, 24 h, 24 hr Lysotracker IC50, 1000 nM set as activity threshold (FIG. 11-14).
[9] abbreviates: HIV-1 infected primary T lymphocytes.
The mark [10] stands for this setting: intraperitoneal daily over three days, 10 mg/kg.

As a reminder, the IC50 is the point on the concentration scale where inhibition reaches its midpoint.

Like-named read-outs stand apart in the source and are kept apart here.

For `C/C=C/[C@H]1O[C@@H]([C@@H](C)[C@H](O)[C@H](C)[C@H]2OC(=O)/C(OC)=C/C(C)=C/[C@@H](C)[C@@H](O)[C@@H](CC)[C@@H](O)[C@H](C)C/C(C)=C/C=C/[C@@H]2OC)C[C@@H](O)[C@@H]1C` [21-Deoxy CMF, 21-deoxy concanamycin F], the IC50 in data set [1] (24 hr Nef activity IC50, independent donors, 1000 nM set as activity threshold (FIG. 11-14)) came to 4.29 nM; in data set [2] (setting [7]), 23.3 nM.

Regarding `C#CCCC1(CCC(=O)O[C@H]2C[C@@H](O[C@@H]3C[C@](O)([C@@H](C)[C@H](O)[C@H](C)[C@H]4OC(=O)/C(OC)=C/C(C)=C/[C@@H](C)[C@@H](O)[C@@H](C)[C@@H](O)[C@H](C)C/C(C)=C/C=C/[C@@H]4OC)O[C@H](/C=C/C)[C@H]3C)O[C@@H](C)[C@@H]2OC(N)=O)N=N1` [23-Dual Linear Probe CMB, 3′-(3-(3-(but-3-yn-1-yl)-3H-diazirin-3-yl)propanoate) Concanamycin B], in data set [2] (setting [8]), the IC50 is 23.2 nM.

Turning to `C#CCCC1(CCC(=O)O[C@H]2C[C@@H](O[C@@H]3C[C@](O)([C@@H](C)[C@H](O)[C@H](C)[C@H]4OC(=O)/C(OC)=C/C(C)=C/[C@@H](C)[C@@H](O)[C@@H](CC)[C@@H](O)[C@H](C)C/C(C)=C/C=C/[C@@H]4OC)O[C@H](/C=C/C)[C@H]3C)O[C@@H](C)[C@@H]2OC(N)=O)N=N1` [23-Dual Linear Probe CMC, 3′-(3-(3-(but-3-yn-1-yl)-3H-diazirin-3-yl)propanoate) Concanamycin C], in data set [2] (setting [8]), the IC50 was 4.7 nM.

As for `CO/C1=C\C(C)=C\[C@@H](C)[C@@H](O)[C@@H](C)C/C(C)=C/C=C/[C@H](OC)[C@@H]([C@@H](C)[C@@H](O)[C@H](C)[C@@]2(O)C[C@@H](O)[C@H](C)[C@@H](C(C)C)O2)OC1=O` [BafA1, Bafilomycin A1], in data set [1] (setting [9]), the “restoration of MHC-I HLA-A2 surface expression” value was “restore MHC-I HLA-A2”. The 50% inhibitory concentration (IC50) in data set [2] (setting [7]) amounted to 45.2 nM. For the same compound, in data set [3] (25 mg/kg, within 12 days of injection), the weight loss was 30%. Also, in data set [3] (setting [10]), the body weight result is reported as “maintained a normal weight” and the liver toxicity entry was “no evidence of liver toxicity”. Also, the liver enzymes result in data set [3] (intraperitoneal, 25 mg/kg) is “increases in liver enzymes indicative of liver damage”. In addition, in data set [4], the overall body weight result is given as “not affected”, the “pancreatic islet cell size” value was “decrease in pancreatic islet cell size” and the random blood glucose entry was “did not cause significant variations”.

For `CO/C1=C\C(C)=C\[C@@H](C)[C@@H](O)[C@@H](C)C/C(C)=C/C=C/[C@H](OC)[C@@H]([C@@H](C)[C@@H](O)[C@H](C)[C@@]2(OC)C[C@@H](O)[C@H](C)[C@@H](C(C)C)O2)OC1=O` [BafA2, Bafilomycin A2], the half-inhibitory concentration (IC50) in data set [2] (setting [8]) was 25.3 nM.

For `C/C=C/[C@H]1O[C@@](O)([C@@H](C)[C@H](O)[C@H](C)[C@H]2OC(=O)/C(OC)=C/C(C)=C/[C@@H](C)[C@@H](O)[C@@H](CC)[C@@H](O)[C@H](C)C/C(C)=C/C=C/[C@@H]2OC)C[C@@H](O[C@H]2C[C@@H](O)[C@H](OC(N)=O)[C@@H](C)O2)[C@@H]1C` [CMA, Concanamycin A], in data set [1] (setting [9]), the “restoration of MHC-I HLA-A2 surface expression” value is recorded as “restore MHC-I HLA-A2”. In addition, the “concentration with activity in restoring MHC-I HLA-A2” value in data set [1] (HIV-1 infected primary T lymphocytes, FIG. 2) is around 100 pM. Also, the IC50 in data set [2] (setting [7]) is 0.977 nM. Besides, the “CTL killing of HIV-1 WT infected primary T cells” value in data set [5] is “increases CTL killing”. Further, the “Nef-dependent degradation of MHC-I” value in data set [6] (antibody HC-10, FIG. 9) is given as “selectively reverses”. Moreover, in data set [6] (concentrations sufficient to reverse Nef-mediated degradation of MHC-I, FIG. 9), the “Nef-mediated CD4 degradation” value was “did not significantly alter”. For the same compound, in data set [4], the overall body weight entry is “not affected”, the “pancreatic islet cell size” value is on record as “decrease in pancreatic islet cell size” and the random blood glucose result is on record as “did not cause significant variations”.

Regarding `C/C=C/[C@H]1O[C@@](O)([C@@H](C)[C@H](O)[C@H](C)[C@H]2OC(=O)/C(OC)=C/C(C)=C/[C@@H](C)[C@@H](O)[C@@H](C)[C@@H](O)[C@H](C)C/C(C)=C/C=C/[C@@H]2OC)C[C@@H](O[C@H]2C[C@@H](O)[C@H](OC(N)=O)[C@@H](C)O2)[C@@H]1C` [CMB, Concanamycin B, reference compound], the IC50 in data set [2] (setting [7]) worked out at 29.6 nM.

For the compound `C/C=C/[C@H]1O[C@@](O)([C@@H](C)[C@H](O)[C@H](C)[C@H]2OC(=O)/C(OC)=C/C(C)=C/[C@@H](C)[C@@H](O)[C@@H](CC)[C@@H](O)[C@H](C)C/C(C)=C/C=C/[C@@H]2OC)C[C@@H](O[C@H]2C[C@@H](O)[C@H](O)[C@@H](C)O2)[C@@H]1C` [CMC, Concanamycin C, reference compound], the IC50 in data set [2] (setting [7]) amounted to 2.72 nM.

Turning to `C/C=C/[C@H]1O[C@@](O)([C@@H](C)[C@H](O)[C@H](C)[C@H]2OC(=O)/C(OC)=C/C(C)=C/[C@@H](C)[C@@H](O)[C@@H](CC)[C@@H](O)[C@H](C)C/C(C)=C/C=C/[C@@H]2OC)C[C@@H](O)[C@@H]1C` [CMF, Concanamycin F], the half-maximal inhibitory concentration (IC50) in data set [2] (Homo sapiens, PBMC, 24 h) amounted to 6.27 nM.

Take `C#CCCC1(CCC(=O)O[C@H]2C[C@@H](O[C@@H]3C[C@](O)([C@@H](C)[C@H](O)[C@H](C)[C@H]4OC(=O)/C(OC)=C/C(C)=C/[C@@H](C)[C@@H](O)[C@@H](CC)[C@@H](O)[C@H](C)C/C(C)=C/C=C/[C@@H]4OC)O[C@H](/C=C/C)[C@H]3C)O[C@@H](C)[C@@H]2O)N=N1` [Dual Linear Probe CMA, 3′-(3-(3-(but-3-yn-1-yl)-3H-diazirin-3-yl)propanoate) Concanamycin A]: the half-maximal inhibitory concentration (IC50) in data set [2] (setting [8]) stood at 4.87 nM.

As to `CO/C1=C\C(C)=C\C(C)C(O)C(C)C/C(C)=C/C=C/C(OC)C(C(C)C(O)C(C)C2(O)CC(O[C@@H]3O[C@@H](C)[C@H](O)[C@@H](O)[C@H]3OC)C(C)C(C(C)C)O2)OC1=O` (stereo partly shown) [Leucanicidin, reference compound], the IC50 in data set [2] (setting [7]) is 2.04 nM.

As for `CC=CC=CC1OC(O)(C(C)C(O)C(C)C2OC(=O)C(OC)=CC(C)=CC(C)C(O)C(C)CC(C)=CC=CC2OC)CC(OC2CC(O)C(O)C(C)O2)C1C` (stereo not shown) [PC-766B, reference compound], the IC50 in data set [2] (setting [7]) was 2.72 nM.

Take `C/C=C/C1OC(O)(C(C)C(O)C(C)C2OC(=O)/C(OC)=C/C(C)=C/C(C)C(O)C(CC)C(O)C(C)C/C(C)=C/C=C/C2OC)CC(OC(=O)/C=C/C(=O)NC2=C(O)CCC2=O)C1C` (stereo not shown) [Virustomycin, reference compound]: the 50% inhibitory concentration (IC50) in data set [1] was found to be 0.688 nM; in data set [2] (setting [7]), 3.68 nM.
